This passage reports IC50 results from ChEMBL document CHEMBL4808193, “[11]-Chaetoglobosins from Pseudeurotium bakeri Induce G2/M Cell Cycle Arrest and Apoptosis in Human Cancer Cells” (J Nat Prod, 2021).

Counter-ions that a name gives are not always drawn.

Broadly, the IC50 is the point on the concentration scale where inhibition reaches its midpoint.

The test system of one assay is A549. Kind of assay: Cytotoxicity against human A549 cells assessed as reduction in cell viability by MTT assay. Format: functional, cell-based. For orientation: Formazan colour is commonly taken as a measure of viable cells.
The test system of a further assay is A-427. Kind of assay: Cytotoxicity against human A-427 cells assessed as reduction in cell viability by MTT assay. The format is functional, cell-based.
The next assay concerns HCT-116. Kind of assay: Cytotoxicity against human HCT-116 cells assessed as reduction in cell viability by MTT assay. Format: functional, cell-based.
For another assay, the system named is HT-29. Kind of assay: Cytotoxicity against human HT-29 cells assessed as reduction in cell viability by MTT assay. The format is functional, cell-based.
The test system of a further assay is MCF7. Description: Cytotoxicity against human MCF7 cells assessed as reduction in cell viability by MTT assay. The format is functional, cell-based.
In another assay the test system is HeLa. Kind of assay: Cytotoxicity against human HeLa cells assessed as reduction in cell viability by MTT assay. Format: functional, cell-based.
In another assay the test system is HepG2. Description: Cytotoxicity against human HepG2 cells assessed as reduction in cell viability by MTT assay. The format is functional, cell-based.
The next assay deals with L02. Kind of assay: Cytotoxicity against human L02 cells assessed as reduction in cell viability by MTT assay. Format: cell-based.

For the compound `CC1=C[C@@H]2/C=C/C[C@H](C)CCCCC(=O)[C@]23C(=O)N[C@@H](Cc2c[nH]c4ccccc24)[C@@H]3[C@@H]1C`, the IC50 was > 50 µM with A549; 13.8 µM in the assay with A-427; 38.5 µM with HCT-116; > 50 µM with HT-29; > 50 µM in the assay on MCF7; 20.3 µM in the assay with HeLa. The half-maximal inhibitory concentration (IC50) with HepG2 and in the assay on L02 was > 50 µM in each case.
`COc1cccc2c1C(=O)c1c(O)c3c(c(O)c1C2=O)C[C@@](O)(C(=O)CO)C[C@@H]3O[C@H]1C[C@H](N)[C@H](O)[C@H](C)O1` [DOXORUBICIN HYDROCHLORIDE]: the IC50 with HCT-116 was determined as 2.9 µM; with HT-29 it was 2.6 µM; in the assay with HepG2, 0.4 µM; in the assay on L02, 0.7 µM.
As to `CC1=C(C)[C@H]2[C@H](Cc3c[nH]c4ccccc34)NC(=O)[C@]23C(=O)CCCC[C@@H](C)C/C=C/[C@H]3[C@@H]1O`, the IC50 in the assay with A549 is > 50 µM; in the assay on A-427, > 50 µM; with HCT-116, > 50 µM; in the assay on HT-29 it was > 50 µM; in the assay on MCF7 it was > 50 µM; with HeLa, 18.9 µM. The half-inhibitory concentration (IC50) was > 50 µM in the assay with HepG2 and 46.3 µM in the assay on L02.
As for `CC(=O)O[C@@H]1CC(=O)C[C@@H](C)C/C=C/[C@H]2[C@H](O)C(C)=C(C)[C@H]3[C@H](Cc4c[nH]c5ccccc45)NC(=O)[C@@]23C1=O`, the 50% inhibitory concentration (IC50) with A549 is 15.9 µM; in the assay with A-427, > 50 µM; in the assay on HCT-116, 21.2 µM; in the assay with HT-29 it was > 50 µM; in the assay with MCF7, > 50 µM; in the assay with HeLa, > 50 µM. Besides, the IC50 with HepG2 and in the assay on L02 was > 50 µM each time.
Turning to `C[C@H]1C/C=C/[C@H]2C(=O)[C@H](C)[C@@H](C)[C@H]3[C@H](Cc4c[nH]c5ccccc45)NC(=O)[C@]32C(=O)CCCC1`, the IC50 in the assay with A549, in the assay with A-427, in the assay on HCT-116, in the assay on HT-29, in the assay on MCF7 and with HeLa was > 50 µM in each case. Moreover, the IC50 with HepG2 and in the assay with L02 was > 50 µM throughout.
On to `CO[C@@H]1CC(=O)C[C@@H](C)C/C=C/[C@H]2C=C(C)[C@@H](C)[C@H]3[C@H](Cc4c[nH]c5ccccc45)NC(=O)[C@]32C1=O`, for which the IC50 with A549 is 23.3 µM; with A-427, > 50 µM; in the assay with HCT-116 it was 30.9 µM; with HT-29, 43.8 µM; in the assay with MCF7 it was > 50 µM; in the assay with HeLa, > 50 µM. The values for the half-maximal inhibitory concentration (IC50) with HepG2 and in the assay with L02 were 44.4 µM and > 50 µM, respectively.
`CO[C@@H]1/C=C\[C@@H](C)C/C=C/[C@H]2[C@H](O)C(C)=C(C)[C@H]3[C@H](Cc4c[nH]c5ccccc45)NC(=O)[C@@]23C(=O)C1`: the concentration for half-maximal inhibition (IC50) is 21.5 µM in the assay on A549; > 50 µM with A-427; 26.1 µM in the assay with HCT-116; > 50 µM in the assay on HT-29; > 50 µM with MCF7; 41.5 µM in the assay on HeLa. Also, the IC50 in the assay with HepG2 and in the assay with L02 was > 50 µM throughout.
For the compound `C=C1[C@@H](C)[C@H]2[C@H](Cc3c[nH]c4ccccc34)NC(=O)[C@]23C(=O)CCCC[C@@H](C)C/C=C/[C@H]3[C@@H]1O`, the half-maximal inhibitory concentration (IC50) with A549 was 40.4 µM; in the assay with A-427, > 50 µM; with HCT-116, 45.3 µM; in the assay on HT-29 it was > 50 µM; in the assay on MCF7, > 50 µM; in the assay on HeLa it was > 50 µM. For the same compound, the IC50 in the assay with HepG2 and in the assay with L02 was > 50 µM in each case.
Take `CC1=C[C@@H]2/C=C/C[C@H](C)CC(=O)[C@@H]3O[C@H]3C(=O)[C@]23C(=O)N[C@@H](Cc2c[nH]c4ccccc24)[C@@H]3[C@@H]1C`: the half-maximal inhibitory concentration (IC50) with A549 was 44 µM; in the assay with A-427, > 50 µM; in the assay with HCT-116 it was > 50 µM; in the assay on HT-29, 40.4 µM; in the assay with MCF7, > 50 µM; in the assay on HeLa, > 50 µM. Also, the figures for the IC50 in the assay with HepG2 and with L02 were 37.3 µM and > 50 µM, respectively.
